Laboratory results reported in patent US11654199B2 (BOLT BIOTHERAPEUTICS, INC., priority 2019, dated 2023).

Experiments:
[1] = molecular target: T1, human TLR8 (Homo sapiens, UniProt Q9NR97); assay: HEK293 NFKB reporter assay, human TLR8; format: cell-based; details: HEK293 NFKB reporter cells expressing human TLR8; read-out: HEK293 hTLR8 EC50
T1 construct: host or cells: HEK293 reporter cells
T1 sequence (Q9NR97 27-1041): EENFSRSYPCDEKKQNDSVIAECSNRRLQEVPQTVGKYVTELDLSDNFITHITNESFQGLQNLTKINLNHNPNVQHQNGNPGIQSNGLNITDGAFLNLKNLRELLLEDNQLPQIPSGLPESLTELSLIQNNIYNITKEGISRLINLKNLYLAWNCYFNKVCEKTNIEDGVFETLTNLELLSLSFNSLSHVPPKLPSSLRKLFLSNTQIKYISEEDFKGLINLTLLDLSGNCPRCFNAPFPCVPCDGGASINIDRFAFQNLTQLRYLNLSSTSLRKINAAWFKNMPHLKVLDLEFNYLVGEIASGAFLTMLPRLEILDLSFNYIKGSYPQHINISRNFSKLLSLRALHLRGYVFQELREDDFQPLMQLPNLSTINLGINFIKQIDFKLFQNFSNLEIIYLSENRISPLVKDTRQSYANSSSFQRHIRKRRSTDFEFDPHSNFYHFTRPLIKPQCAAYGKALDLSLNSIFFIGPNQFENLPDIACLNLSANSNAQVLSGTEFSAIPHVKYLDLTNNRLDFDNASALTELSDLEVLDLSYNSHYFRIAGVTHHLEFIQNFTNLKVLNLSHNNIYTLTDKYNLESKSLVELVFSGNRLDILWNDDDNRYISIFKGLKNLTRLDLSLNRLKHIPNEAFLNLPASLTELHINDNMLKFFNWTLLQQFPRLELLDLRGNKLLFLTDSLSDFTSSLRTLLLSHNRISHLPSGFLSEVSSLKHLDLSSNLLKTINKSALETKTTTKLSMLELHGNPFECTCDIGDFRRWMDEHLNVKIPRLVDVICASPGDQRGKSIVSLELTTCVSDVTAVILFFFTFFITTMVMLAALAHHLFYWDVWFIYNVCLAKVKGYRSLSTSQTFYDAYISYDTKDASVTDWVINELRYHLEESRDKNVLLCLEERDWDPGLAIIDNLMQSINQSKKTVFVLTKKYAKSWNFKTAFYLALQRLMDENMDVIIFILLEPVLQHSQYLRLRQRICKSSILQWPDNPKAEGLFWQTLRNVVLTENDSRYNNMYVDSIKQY
Experimental: (§1) Each compound was synthesized, purified, and characterized by mass spectrometry and shown to have the mass indicated. Additional experimental procedures are found in the Examples. Activity against HEK293 NFKB reporter cells expressing human TLR7 or human TLR8 was measured according to Example 202.
(§2) HEK293 reporter cells expressing human TLR7 or human TLR8 were purchased from Invivogen and vendor protocols were followed for cellular propagation and experimentation. Briefly, cells were grown to 80-85% confluence at 5% CO2 in DMEM supplemented with 10% FBS, Zeocin, and Blasticidin. Cells were then seeded in 96-well flat plates at 4×10^4 cells/well with substrate containing HEK detection medium and immunostimulatory molecules. Activity was measured using a plate reader at 620-655 nm wavelength.

[2] = molecular target: T2, human TLR7 (Homo sapiens, UniProt Q9NYK1); assay: HEK293 NFKB reporter assay, human TLR7; format: cell-based; details: HEK293 NFKB reporter cells expressing human TLR7; read-out: HEK293 hTLR7 EC50
T2 construct: host or cells: HEK293 reporter cells
T2 sequence (Q9NYK1 27-1049): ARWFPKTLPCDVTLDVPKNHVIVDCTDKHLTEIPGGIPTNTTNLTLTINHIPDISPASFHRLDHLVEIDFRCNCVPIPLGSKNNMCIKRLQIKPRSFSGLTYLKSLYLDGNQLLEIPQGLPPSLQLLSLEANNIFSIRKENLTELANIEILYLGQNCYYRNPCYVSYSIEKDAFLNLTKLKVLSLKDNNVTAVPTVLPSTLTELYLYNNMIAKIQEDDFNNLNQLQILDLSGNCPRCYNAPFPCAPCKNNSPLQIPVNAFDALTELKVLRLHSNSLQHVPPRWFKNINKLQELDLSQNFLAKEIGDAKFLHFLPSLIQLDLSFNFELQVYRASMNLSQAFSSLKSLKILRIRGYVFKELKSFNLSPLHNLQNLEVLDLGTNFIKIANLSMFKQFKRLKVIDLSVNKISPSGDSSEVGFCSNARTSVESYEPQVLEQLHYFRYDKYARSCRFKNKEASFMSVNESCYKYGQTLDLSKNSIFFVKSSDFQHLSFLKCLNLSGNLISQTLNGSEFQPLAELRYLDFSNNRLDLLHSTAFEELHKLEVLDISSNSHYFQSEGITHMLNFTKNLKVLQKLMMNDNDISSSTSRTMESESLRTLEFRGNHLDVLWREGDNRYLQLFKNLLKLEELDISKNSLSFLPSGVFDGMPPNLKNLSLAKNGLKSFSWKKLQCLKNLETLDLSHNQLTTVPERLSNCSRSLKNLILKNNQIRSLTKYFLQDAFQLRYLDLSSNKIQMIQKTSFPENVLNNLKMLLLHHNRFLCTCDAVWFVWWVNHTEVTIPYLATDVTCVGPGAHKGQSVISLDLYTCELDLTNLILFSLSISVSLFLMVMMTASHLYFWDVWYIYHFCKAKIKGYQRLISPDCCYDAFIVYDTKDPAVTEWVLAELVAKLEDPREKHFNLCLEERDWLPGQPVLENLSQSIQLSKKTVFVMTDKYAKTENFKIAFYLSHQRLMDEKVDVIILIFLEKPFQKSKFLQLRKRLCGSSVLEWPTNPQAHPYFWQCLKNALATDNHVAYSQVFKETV
Experimental: as §1, §2

EC50 [1] | EC50 [2] | Compound
4.24 µM | 4.42 µM | CCCN(CCC)C(=O)C1=Cc2sc(COCCCNC(=O)OC(C)(C)C)cc2N=C(N)C1 [TAZ-66]
0.631 µM | 0.467 µM | CCCN(OCC)C(=O)C1=Cc2sc(CCC3CN(C(=O)OC(C)(C)C)C3)cc2N=C(N)C1 [TAZ-194]
1.64 µM | 5.81 µM | CCCN(OCC)C(=O)C1=Cc2sc(C#CC3CCNCC3)cc2N=C(N)C1 [TAZ-174]
3.42 µM | 4.7 µM | CCCN(CCC)C(=O)C1=Cc2sc(CC(=O)OC)cc2N=C(N)C1 [TAZ-134]
0.339 µM | > 9 µM | CCCN(Cc1ccc(CN2CCN(C(=O)OC(C)(C)C)CC2)cc1)C(=O)C1=Cc2sccc2N=C(N)C1 [TAZ-34]
0.868 µM | 4.45 µM | CCCN(OCC)C(=O)C1=Cc2sc(CC3CN(C(C)=O)C3)cc2N=C(N)C1 [TAZ-252]
0.192 µM | 7.17 µM | CCCN(OC(C)C)C(=O)C1=Cc2sc(CC3CNC3)cc2N=C(N)C1 [TAZ-253, 5-amino-2-(azetidin-3-ylmethyl)-N-isopropoxy-N-propyl-6H-thieno[3,2-b]azepine-7-carboxamide]
0.84 µM | 0.101 µM | CCCN(CCCNC(=O)OC1CCC1)C(=O)C1=Cc2sc(CC3CN(C(=O)OC(C)(C)C)C3)cc2N=C(N)C1 [TAZ-182]
3.79 µM | 4 µM | CCCN(CCC)C(=O)C1=Cc2sc(COCCNC(=O)OC(C)(C)C)cc2N=C(N)C1 [TAZ-80]
5.46 µM | 4.25 µM | CCCN(OCC)C(=O)C1=Cc2sc(CN3CCC4(CCNC4)CC3)cc2N=C(N)C1 [TAZ-240]
1.67 µM | 1.99 µM | CCCN(OCCNC(=O)CC(C)(C)C)C(=O)C1=Cc2sc(CCCCCNC(=O)OC(C)(C)C)cc2N=C(N)C1 [TAZ-150]
0.848 µM | 5.57 µM | CCCN(CCC)C(=O)C1=Cc2sc(CN3CCN(C)CC3)cc2N=C(N)C1 [TAZ-129]
3.19 µM | 0.909 µM | CCCN(CCC)C(=O)C1=Cc2sc(CNC(=O)CCN)cc2N=C(N)C1 [TAZ-90]
3.01 µM | 0.586 µM | CCCN(CCCNC(=O)OC(C)(C)C)C(=O)C1=Cc2sc(CCCCCN)cc2N=C(N)C1 [TAZ-133, tert-butyl (3-(5-amino-2-(5-aminopentyl)-N-propyl-6H-thieno[3,2-b]azepine-7-carboxamido)propyl)carbamate]
1.42 µM | 3.44 µM | CCCN(OCC)C(=O)C1=Cc2sc(CCCCCN)cc2N=C(N)C1 [TAZ-76]
0.953 µM | 6.6 µM | CCCN(OCC)C(=O)C1=Cc2sc(CCC3CNC3)cc2N=C(N)C1 [TAZ-195]
0.847 µM | 3.2 µM | CCCN(OCC)C(=O)C1=Cc2sc(CN3CC4(C3)CN(c3ccc(C)cc3)C4)cc2N=C(N)C1 [TAZ-219]
3.37 µM | 0.282 µM | CCCN(CCCNC(=O)NCC)C(=O)C1=Cc2sc(CCCCCNC(=O)OC(C)(C)C)cc2N=C(N)C1 [TAZ-170]
4.43 µM | 0.436 µM | CCCN(OCC)C(=O)C1=Cc2sc(CN3CCCN(C(=O)OC(C)(C)C)CC3)cc2N=C(N)C1 [TAZ-226]
1.61 µM | 0.031 µM | CCCN(OCC)C(=O)C1=Cc2sc(CCC3(O)CN(C(=O)OC(C)(C)C)C3)cc2N=C(N)C1 [TAZ-199]
0.286 µM | 0.112 µM | CCCN(OCCNC(=O)OC1CCC1)C(=O)C1=Cc2sc(CC3CNC3)cc2N=C(N)C1 [TAZ-238, cyclobutyl N-[2-[[5-amino-2-(azetidin-3-ylmethyl)-6H-thieno[3,2-b]azepine-7-carbonyl]-propyl-amino]oxyethyl]carbamate]

The remaining lines, values behind:

Compound | EC50 [1] | EC50 [2]
CCCN(Cc1cnc(CN)c(C(F)(F)F)c1)C(=O)C1=Cc2sccc2N=C(N)C1 [TAZ-104] | 1.44 µM | 3.17 µM
CCCN(CCCNC(=O)OC1CCC1)C(=O)C1=Cc2sc(C#CC3CCNCC3)cc2N=C(N)C1 [TAZ-164] | 3.89 µM | 0.476 µM
CCCN(CCC)C(=O)C1=Cc2sc(C(=O)NCCCN)cc2N=C(N)C1 [TAZ-32] | > 9 µM | > 9 µM
[2H]C1=C(C(=O)N(CCC)Cc2ccc(CNC(=O)OC(C)(C)C)nc2)CC(N)=Nc2ccsc21 [TAZ-50] | 7.94 µM | 7.12 µM
CCCN(C[C@H]1C[C@@H](CNC(=O)OC(C)(C)C)C1)C(=O)C1=Cc2sccc2N=C(N)C1 [TAZ-48] | > 9 µM | > 9 µM
CCCN(OCC)C(=O)C1=Cc2sc(CN3CC4CCC(C3)N4C(=O)OC(C)(C)C)cc2N=C(N)C1 [TAZ-241] | 3.06 µM | 2.81 µM
CCCN(Cc1ccc(CO)cc1)C(=O)C1=Cc2sccc2N=C(N)C1 [TAZ-96] | 0.326 µM | 2.96 µM
CCCN(CC1CC1)C(=O)C1=Cc2sc(CCCCCN)cc2N=C(N)C1 [TAZ-124] | 1.94 µM | 1.73 µM
CCCN(CCC)C(=O)C1=Cc2sc(CCCCN)cc2N=C(N)C1 [TAZ-38] | 3.75 µM | 4.15 µM
CCCN(Cc1ccc(CN)nc1)C(=O)C1=Cc2sccc2N=C(N)C1 [TAZ-63] | 0.517 µM | 4.21 µM
CCCN(CCC)C(=O)C1=Cc2sc(CN)cc2N=C(N)C1 [TAZ-84] | 1.37 µM | 4.95 µM
CCCN(C(=O)C1=Cc2sc(CCCCCN)cc2N=C(N)C1)C1CC1 [TAZ-122] | 3.24 µM | 3.35 µM
CCCN(Cc1ccc(CN)cc1C(F)(F)F)C(=O)C1=Cc2sccc2N=C(N)C1 [TAZ-52, 5-amino-N-[[4-(aminomethyl)-2-(trifluoromethyl)phenyl]methyl]-N-propyl-6H-thieno[3,2-b]azepine-7-carboxamide] | 0.151 µM | 2.71 µM
CCCN(CCCNC(=O)OC1CCC1)C(=O)C1=Cc2sc(CN3CCC(Nc4ccc(CN)cc4)C3)cc2N=C(N)C1 (centres unmarked) [TAZ-190] | 4.8 µM | 2.99 µM
CCCN(CCCNC(=O)OC1CCC1)C(=O)C1=Cc2sc(CCC3CCNCC3)cc2N=C(N)C1 [TAZ-166] | 3.7 µM | 0.802 µM
CCCN(Cc1ccc(CN(C)C)cc1)C(=O)C1=Cc2sc(CCCCCN)cc2N=C(N)C1 [TAZ-82] | 2.87 µM | 5 µM
CCCN(CCc1ccc(OC)cc1)C(=O)C1=Cc2sccc2N=C(N)C1 [TAZ-83] | 3.37 µM | 3.52 µM
CCCN(Cc1ccc(CNC(=O)OC(C)(C)C)cc1C(F)(F)F)C(=O)C1=Cc2sccc2N=C(N)C1 [TAZ-51] | 5.63 µM | > 9 µM
CCON(Cc1ccc(CN)cc1)C(=O)C1=Cc2sccc2N=C(N)C1 [TAZ-79] | 4.13 µM | > 9 µM
